According to ChEMBL document CHEMBL4483862, “Open-source discovery of chemical leads for next-generation chemoprotective antimalarials” (2018):

Test system: Plasmodium berghei
Test: Luciferase/luciferin-expressing antifolate-resistant parasites were used to infect a culture of HepG2 cells that were pre-incubated with compounds. Infected hepatocytes emit light due to the luciferase reaction. Assay results are presented as the percent inhibition of light emission compared to control. […]
Format: functional
Details: sporozoite; for IC90: read-out: LUCIFERASE INFECTION ASSAY - IC90
[1] = read-out: LUCIFERASE INFECTION ASSAY - IC50

SMILES | IC90 | IC50 [1] | other results
COc1ccc(C(CNC(=O)c2cc3cc(Br)ccc3[nH]2)N2CCCC2)cc1 (configuration not stated) | > 10 µM | – | IC50 (PBLUC_HILL_SLOPE 3.58, PBLUC_R_SQUARED 0.137, read-out: LUCIFERASE INFECTION ASSAY - IC50): > 10 µM
Cc1ccc(C(=O)c2sc(Nc3ccc(F)cc3)c(-c3nnc(N4CCOCC4)n3-c3ccccc3)c2N)cc1C | > 10 µM | – | IC50 (HEPG2TOX_HILL_SLOPE 7.05, HEPG2TOX_R_SQUARED 0.741, PBLUC_HILL_SLOPE 9.57, PBLUC_R_SQUARED 0.198, read-out: LUCIFERASE INFECTION ASSAY - IC50): 8.84 µM
CC(=O)Nc1cccc(-c2cn3c(-c4ccc(C#N)cc4)cnc3cn2)c1 | > 9.34 µM | – | IC50 (PBLUC_HILL_SLOPE 15, PBLUC_R_SQUARED 0.251, read-out: LUCIFERASE INFECTION ASSAY - IC50): 8.2 µM
O=C1CN(C(=O)CSC2=N/C(=C/c3ccccc3)C(=O)N2c2ccc(F)cc2)c2ccccc2N1 | > 10 µM | > 10 µM | –
O=C(c1cnn(C(=O)c2nn(-c3ccc(Cl)cc3)cc2O)c1)c1ccccc1O | 3.83 µM | – | IC50 (HEPG2TOX_HILL_SLOPE 0.890, 1.11, HEPG2TOX_R_SQUARED 0.813, 0.357, PBLUC_HILL_SLOPE 9.04, 15.6, PBLUC_R_SQUARED 0.0255, 0.659, read-out: LUCIFERASE INFECTION ASSAY - IC50): 3.15 µM
Cc1ccccc1-n1c(Sc2ncccc2[N+](=O)[O-])nc2ccccc2c1=O | > 10 µM | > 10 µM | –
CN(C)C(CNC(=O)c1ccc(NC(=O)OC(C)(C)C)cc1)c1cccs1 (configuration not stated) | > 10 µM | > 10 µM | –
COc1cccc(-c2cn3c(-c4ccc(CO)cc4)cnc3cn2)c1F | > 9.45 µM | 8.82 µM | –
COc1ccc(-c2cc3[nH]c(NCc4ccccc4)nc3cn2)cc1OC | 5.34 µM | – | IC50 (HEPG2TOX_HILL_SLOPE 12.7, HEPG2TOX_R_SQUARED 0.819, PBLUC_HILL_SLOPE 80.4, PBLUC_R_SQUARED 0.69, read-out: LUCIFERASE INFECTION ASSAY - IC50): 5.2 µM
CCOc1ccccc1NC1=C(Cl)C(=O)c2ccccc2C1=O | 9.94 µM | – | IC50 (HEPG2TOX_HILL_SLOPE 12.2, HEPG2TOX_R_SQUARED 0.715, PBLUC_HILL_SLOPE 2.84, PBLUC_R_SQUARED 0.486, read-out: LUCIFERASE INFECTION ASSAY - IC50): 4.58 µM
CC(=O)OC1CCC2(C)C3CCC4(C)C(C5=CC(=O)OC5)CCC4(O)C3CCC2(O)C1 (configuration not stated) | > 7.63 µM | – | IC50 (HEPG2TOX_HILL_SLOPE 2.67, HEPG2TOX_R_SQUARED 0.733, PBLUC_HILL_SLOPE 2.15, PBLUC_R_SQUARED 0.208, read-out: LUCIFERASE INFECTION ASSAY - IC50): 3 µM
O=C1C=CC(=O)N1c1cccc(Br)c1 | > 13.1 µM | – | IC50 (PBLUC_HILL_SLOPE 13.6, PBLUC_R_SQUARED 0.314, read-out: LUCIFERASE INFECTION ASSAY - IC50): 12.9 µM
CC(C)c1ccc(N(C(=O)CC(c2ccccc2)c2ccccc2)c2nc3ccccc3s2)cc1 | > 10 µM | > 10 µM | –
COc1cccc(C2=NN(C(=O)c3ccco3)C(c3ccccc3O)C2)c1 (configuration not stated) | 8.57 µM | – | IC50 (HEPG2TOX_HILL_SLOPE 15.7, HEPG2TOX_R_SQUARED 0.922, PBLUC_HILL_SLOPE 21, PBLUC_R_SQUARED 0.659, read-out: LUCIFERASE INFECTION ASSAY - IC50): 7.72 µM
Cc1cnc(Nc2ncnc3ccccc23)s1 | > 10 µM | > 10 µM | –
Cc1ccnc(-n2c(C)c(C)c3c2ncn2nc(Cc4ccccc4)nc32)c1 | > 8.96 µM | > 8.96 µM | –
Cc1cc2c(cc1C)NC(c1ccc(Br)cc1)C1C(=O)CCCC1=N2 (configuration not stated) | > 8.31 µM | – | IC50 (PBLUC_HILL_SLOPE 1.27, PBLUC_R_SQUARED 0.271, read-out: LUCIFERASE INFECTION ASSAY - IC50): 6.95 µM
N#Cc1ccsc1NC(=O)c1ccc(Cl)c([N+](=O)[O-])c1 | > 10 µM | > 10 µM | –
O=C(NC1CC1)c1ccc(CN(C(=O)Nc2cccc3ccccc23)C2CC2)cc1 | 4.41 µM | – | IC50 (PBLUC_HILL_SLOPE 14, PBLUC_R_SQUARED 0.411, read-out: LUCIFERASE INFECTION ASSAY - IC50): 3.77 µM
O=C1C=C(c2ccccc2)C(=O)N1Nc1ccc(Cl)cc1Cl | > 9.9 µM | – | IC50 (HEPG2TOX_HILL_SLOPE 5.8, HEPG2TOX_R_SQUARED 0.44, PBLUC_HILL_SLOPE 7.31, PBLUC_R_SQUARED 0.6, read-out: LUCIFERASE INFECTION ASSAY - IC50): 9.05 µM
COc1ccc(S(=O)(=O)Nc2cc(Sc3ccc(C)cc3)c(O)c3ccccc23)cc1 | > 10 µM | – | IC50 (PBLUC_HILL_SLOPE 2.53, PBLUC_R_SQUARED 0.459, read-out: LUCIFERASE INFECTION ASSAY - IC50): 6.71 µM
CCc1cccc(CC)c1N(C(C)=O)c1nc(/C=C/C(=O)c2ccc3c(c2)OCCO3)cs1 | 3.81 µM | – | IC50 (FFLUC_HILL_SLOPE 12.1, FFLUC_R_SQUARED 0.466, HEPG2TOX_HILL_SLOPE 15.2, HEPG2TOX_R_SQUARED 0.81, PBLUC_HILL_SLOPE 12.5, PBLUC_R_SQUARED 0.644, read-out: LUCIFERASE INFECTION ASSAY - IC50): 3.2 µM
CN(C)c1cccc(CNc2nccc3nc(-c4ccncc4)[nH]c23)c1 | > 10 µM | > 10 µM | –

SMILES | IC90 | IC50 [1] | other results
Cc1ccc(-n2cccc2)c(NC(=O)c2c(-c3c(Cl)cccc3Cl)noc2C)c1 | > 7.74 µM | – | IC50 (PBLUC_HILL_SLOPE 1.2, PBLUC_R_SQUARED 0.354, read-out: LUCIFERASE INFECTION ASSAY - IC50): 4.14 µM
COc1ccc(-c2cc3ncnc(NCc4ccc(N5CCN(C)CC5)nc4)c3s2)cc1 | 4.79 µM | – | IC50 (HEPG2TOX_HILL_SLOPE 1.93, HEPG2TOX_R_SQUARED 0.825, PBLUC_HILL_SLOPE 2.26, PBLUC_R_SQUARED 0.8, read-out: LUCIFERASE INFECTION ASSAY - IC50): 1.81 µM
O=C1C=CC(=O)N1c1cccc(Cl)c1 | > 15.9 µM | > 15.9 µM | –
Fc1ccc(Nc2n[nH]c(=S)s2)cc1 | > 14.5 µM | > 14.5 µM | –
CN1CCN(c2nc(-c3c(-c4ccc(F)cc4)[nH]c4ccccc34)cs2)CC1 | > 10 µM | > 10 µM | –
COc1ccc(/C=C/C(=O)Nc2ccc(C34CC5CC(CC(O)(C5)C3)C4)cc2)cc1OC | 4.89 µM | – | IC50 (HEPG2TOX_HILL_SLOPE 4.85, 2.53, HEPG2TOX_R_SQUARED 0.902, 0.960, PBLUC_HILL_SLOPE 2.45, PBLUC_R_SQUARED 0.68, read-out: LUCIFERASE INFECTION ASSAY - IC50): 1.99 µM
N#Cc1c(SCc2ccc(F)cc2)nc(N2CCOCC2)c2c1CCCC2 | > 8.61 µM | > 8.61 µM | –
CC1(C(=O)NC2CCN(S(C)(=O)=O)CC2)CC1(Cl)Cl (configuration not stated) | > 10 µM | > 10 µM | –
O=C(CC12CC3CC(CC(C3)C1)C2)NCC(=O)Nc1ccc2[nH]c(=O)[nH]c2c1 | > 10 µM | > 10 µM | –
Cc1ccc(C)c(OCC(O)CN2CCc3ccccc3C2)c1 (configuration not stated) | > 9.49 µM | > 9.49 µM | –
N#C/C(=C1/SC=C(c2ccc(-c3ccccc3)cc2)N1c1ccccc1)c1nnc2n1CCCCC2 | 3.6 µM | – | IC50 (HEPG2TOX_HILL_SLOPE 7.81, HEPG2TOX_R_SQUARED 0.359, PBLUC_HILL_SLOPE 26.3, PBLUC_R_SQUARED 0.88, read-out: LUCIFERASE INFECTION ASSAY - IC50): 3.31 µM
CC(C)(C)c1ccc(-c2cnc3cnc(-c4ccc(N)nc4)cn23)cc1 | 4.41 µM | – | IC50 (PBLUC_HILL_SLOPE 8.01, PBLUC_R_SQUARED 0.801, read-out: LUCIFERASE INFECTION ASSAY - IC50): 3.35 µM
Cc1ccc(Nc2nc(NCCO)c3ccccc3n2)cc1 | > 10 µM | 4.79 µM | –
Cc1ccc(C(C)CCN2CCC3(CC2)C(=O)N(C2Cc4ccccc4C2)C(=O)N3CC(C)C)o1 (configuration not stated) | > 6.91 µM | – | IC50 (HEPG2TOX_HILL_SLOPE 5.24, HEPG2TOX_R_SQUARED 0.932, PBLUC_HILL_SLOPE 15.5, PBLUC_R_SQUARED 0.389, read-out: LUCIFERASE INFECTION ASSAY - IC50): 6.38 µM
COc1ccc(C(=O)Nc2ccc3nc(-c4cc(OC)c(OC)c(OC)c4)nn3c2)cc1OC | 4.55 µM | – | IC50 (PBLUC_HILL_SLOPE 1.61, PBLUC_R_SQUARED 0.589, read-out: LUCIFERASE INFECTION ASSAY - IC50): 1.17 µM
COC(=O)c1sccc1Oc1ccc(C(F)(F)F)cc1NC(=O)Nc1c(Cl)cc(Cl)cc1Cl | > 6.11 µM | > 6.11 µM | –
Cc1ccccc1C(=O)N1CCC(C(=O)Oc2ccc(Cl)c3ccccc23)CC1 | > 10 µM | > 10 µM | –
FC(F)(F)c1cccc(-c2ccc3ncc(-c4cccnc4)n3n2)c1 | 2.23 µM | – | IC50 (HEPG2TOX_HILL_SLOPE 12.4, HEPG2TOX_R_SQUARED 0.643, PBLUC_HILL_SLOPE 4.46, PBLUC_R_SQUARED 0.619, read-out: LUCIFERASE INFECTION ASSAY - IC50): 1.36 µM
CCc1ccc(S(=O)(=O)Oc2ccccc2NC(C)=O)cc1 | > 10 µM | > 10 µM | –
Cc1c(C(=O)c2ccccc2)oc2ccc(NC(=O)c3ccco3)cc12 | > 9.56 µM | – | IC50 (PBLUC_HILL_SLOPE 11.9, PBLUC_R_SQUARED 0.0568, read-out: LUCIFERASE INFECTION ASSAY - IC50): > 9.56 µM
Cc1ccc2nc(NC(=O)c3ccccc3)c(C(=O)NC3CCCC3)n2c1 | 3.58 µM | 3.06 µM | –
O=C(CN1C(=O)CSc2ccc(C(F)(F)F)cc21)Nc1ccc(Cl)cc1 | 3.03 µM | – | IC50 (PBLUC_HILL_SLOPE 15.8, PBLUC_R_SQUARED 0.354, read-out: LUCIFERASE INFECTION ASSAY - IC50): 2.64 µM
CO[C@H]1[C@@H](O)[C@@H](C)O[C@H](O[C@H]2CC[C@]3(C)C4CC[C@]5(C)[C@@H](C6=CC(=O)OC6)CC[C@]5(O)C4CC[C@]3(O)C2)[C@@H]1O (some centres not stated) | 0.258 µM | – | IC50 (HEPG2TOX_HILL_SLOPE 2.49, HEPG2TOX_R_SQUARED 0.917, PBLUC_HILL_SLOPE 3.98, PBLUC_R_SQUARED 0.716, read-out: LUCIFERASE INFECTION ASSAY - IC50): 0.148 µM
